Assay results: PubChem BioAssay (NCI)
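Dose response: 5 concentrations. Exposure: 48 h. Format: 96-well plates. Endpoint: linear interpolation; highest concentration if not reached. The concentration for full growth arrest is given as TGI.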

Columns and labels:
Assay in all cases: growth of human tumour cells (NCI), 48 h
A549 NSCLC = test system: A549 NSCLC
CAKI-1 renal = test system: CAKI-1 renal
CCRF-CEM leukemia = test system: CCRF-CEM leukemia
COLO 205 colon = test system: COLO 205 colon
DLD-1 colon = test system: DLD-1 colon
DMS 114 small cell lung = test system: DMS 114 small cell lung
DMS 273 small cell lung = test system: DMS 273 small cell lung
EKVX NSCLC = test system: EKVX NSCLC
HCC-2998 colon = test system: HCC-2998 colon
HCT-15 colon = test system: HCT-15 colon
HL-60(TB) leukemia = test system: HL-60(TB) leukemia
HOP-62 NSCLC = test system: HOP-62 NSCLC
HOP-92 NSCLC = test system: HOP-92 NSCLC
HT29 colon = test system: HT29 colon
IGROV1 ovarian = test system: IGROV1 ovarian
K-562 leukemia = test system: K-562 leukemia
KM12 colon = test system: KM12 colon
LOX IMVI melanoma = test system: LOX IMVI melanoma
LXFL 529 NSCLC = test system: LXFL 529 NSCLC
M14 melanoma = test system: M14 melanoma
MOLT-4 leukemia = test system: MOLT-4 leukemia
NCI-H23 lung = test system: NCI-H23 lung
NCI-H460 lung = test system: NCI-H460 lung
NCI-H522 lung = test system: NCI-H522 lung
OVCAR-3 ovarian = test system: OVCAR-3 ovarian
OVCAR-4 ovarian = test system: OVCAR-4 ovarian
OVCAR-8 ovarian = test system: OVCAR-8 ovarian
RPMI-8226 leukemia = test system: RPMI-8226 leukemia
RXF 393 renal = test system: RXF 393 renal
RXF-631 renal = test system: RXF-631 renal
SF-539 CNS = test system: SF-539 CNS
SK-MEL-28 melanoma = test system: SK-MEL-28 melanoma
SK-MEL-5 melanoma = test system: SK-MEL-5 melanoma
SK-OV-3 ovarian = test system: SK-OV-3 ovarian
SN12C renal = test system: SN12C renal
SNB-19 CNS = test system: SNB-19 CNS
SNB-75 CNS = test system: SNB-75 CNS
SNB-78 CNS = test system: SNB-78 CNS
SW-620 colon = test system: SW-620 colon
TK-10 renal = test system: TK-10 renal
U251 CNS = test system: U251 CNS
UACC-257 melanoma = test system: UACC-257 melanoma
UACC-62 melanoma = test system: UACC-62 melanoma
XF 498 CNS = test system: XF 498 CNS
786-0 renal = test system: 786-0 renal
A498 renal = test system: A498 renal
ACHN renal = test system: ACHN renal
HCT-116 colon = test system: HCT-116 colon
HOP-18 NSCLC = test system: HOP-18 NSCLC
KM20L2 colon = test system: KM20L2 colon
M19-MEL melanoma = test system: M19-MEL melanoma
MALME-3M melanoma = test system: MALME-3M melanoma
SF-268 CNS = test system: SF-268 CNS
SF-295 CNS = test system: SF-295 CNS
SK-MEL-2 melanoma = test system: SK-MEL-2 melanoma
UO-31 renal = test system: UO-31 renal
NCI-H226 lung = test system: NCI-H226 lung
OVCAR-5 ovarian = test system: OVCAR-5 ovarian
SR leukemia = test system: SR leukemia

SMILES: C=C(C)C1CC2=C(O1)C(=O)c1ccccc1C2=O (stereo not drawn)
- TGI (A549 NSCLC): 42.3 µM
- TGI (CAKI-1 renal): 31.7 µM
- TGI (CCRF-CEM leukemia): 52.7 µM
- TGI (COLO 205 colon): 37.4 µM
- TGI (DLD-1 colon): 52.1 µM
- TGI (DMS 114 small cell lung): 32.9 µM
- TGI (DMS 273 small cell lung): 33.5 µM
- TGI (EKVX NSCLC): 60.3 µM
- TGI (HCC-2998 colon): 39.3 µM
- TGI (HCT-15 colon): 33.2 µM
- TGI (HL-60(TB) leukemia): 15 µM
- TGI (HOP-62 NSCLC): 35.2 µM
- TGI (HOP-92 NSCLC): 30.8 µM
- TGI (HT29 colon): 38.4 µM
- TGI (IGROV1 ovarian): 36.1 µM
- TGI (K-562 leukemia): 42.1 µM
- TGI (KM12 colon): 33.4 µM
- TGI (LOX IMVI melanoma): > 100 µM
- TGI (LXFL 529 NSCLC): 31.4 µM
- TGI (M14 melanoma): 33.1 µM
- TGI (MOLT-4 leukemia): 32.8 µM
- TGI (NCI-H23 lung): 45.1 µM
- TGI (NCI-H460 lung): 33.8 µM
- TGI (NCI-H522 lung): 39.4 µM
- TGI (OVCAR-3 ovarian): 34.4 µM
- TGI (OVCAR-4 ovarian): 24 µM
- TGI (OVCAR-8 ovarian): 35.6 µM
- TGI (RPMI-8226 leukemia): 44.5 µM
- TGI (RXF 393 renal): 33 µM
- TGI (RXF-631 renal): 40.3 µM
- TGI (SF-539 CNS): 33.7 µM
- TGI (SK-MEL-28 melanoma): 34.2 µM
- TGI (SK-MEL-5 melanoma): 28.1 µM
- TGI (SK-OV-3 ovarian): > 100 µM
- TGI (SN12C renal): 43.5 µM
- TGI (SNB-19 CNS): 96.6 µM
- TGI (SNB-75 CNS): 31.8 µM
- TGI (SNB-78 CNS): 39.9 µM
- TGI (SW-620 colon): 48.4 µM
- TGI (TK-10 renal): 46.3 µM
- TGI (U251 CNS): 30.2 µM
- TGI (UACC-257 melanoma): 26.2 µM
- TGI (UACC-62 melanoma): 30.4 µM
- TGI (XF 498 CNS): 32.2 µM

SMILES: CCOC(=O)C1(Br)C(c2ccccc2)NC(=O)N(C2OC(COC(=O)c3ccccc3)C(OC(=O)c3ccccc3)C2OC(=O)c2ccccc2)C1(C)Br (stereo not drawn)
- TGI (786-0 renal): > 100 µM
- TGI (A498 renal): > 100 µM
- TGI (A549 NSCLC): > 100 µM
- TGI (ACHN renal): > 100 µM
- TGI (CAKI-1 renal): > 100 µM
- TGI (CCRF-CEM leukemia): 18.8 µM
- TGI (COLO 205 colon): > 65.7 µM
- TGI (DLD-1 colon): > 100 µM
- TGI (DMS 114 small cell lung): 49.6 µM
- TGI (DMS 273 small cell lung): > 100 µM
- TGI (EKVX NSCLC): > 94.5 µM
- TGI (HCC-2998 colon): > 100 µM
- TGI (HCT-116 colon): 52.2 µM
- TGI (HCT-15 colon): > 50.1 µM
- TGI (HOP-18 NSCLC): > 100 µM
- TGI (HOP-62 NSCLC): > 100 µM
- TGI (HOP-92 NSCLC): 69.9 µM
- TGI (HT29 colon): > 100 µM
- TGI (IGROV1 ovarian): > 100 µM
- TGI (K-562 leukemia): 19.3 µM
- TGI (KM12 colon): 99.6 µM
- TGI (KM20L2 colon): > 100 µM
- TGI (LOX IMVI melanoma): > 100 µM
- TGI (LXFL 529 NSCLC): > 75.7 µM
- TGI (M14 melanoma): > 63.6 µM
- TGI (M19-MEL melanoma): > 100 µM
- TGI (MALME-3M melanoma): 66.7 µM
- TGI (MOLT-4 leukemia): 59 µM
- TGI (NCI-H23 lung): > 100 µM
- TGI (NCI-H460 lung): > 100 µM
- TGI (NCI-H522 lung): 20.3 µM
- TGI (OVCAR-3 ovarian): > 89.6 µM
- TGI (OVCAR-4 ovarian): 43.4 µM
- TGI (OVCAR-8 ovarian): > 100 µM
- TGI (RPMI-8226 leukemia): 33.2 µM
- TGI (RXF 393 renal): 31 µM
- TGI (RXF-631 renal): 50 µM
- TGI (SF-268 CNS): > 100 µM
- TGI (SF-295 CNS): > 100 µM
- TGI (SF-539 CNS): > 100 µM
- TGI (SK-MEL-2 melanoma): > 100 µM
- TGI (SK-MEL-28 melanoma): > 83.8 µM
- TGI (SK-MEL-5 melanoma): 31.3 µM
- TGI (SK-OV-3 ovarian): > 100 µM
- TGI (SN12C renal): > 100 µM
- TGI (SNB-19 CNS): > 100 µM
- TGI (SNB-75 CNS): > 90.7 µM
- TGI (SW-620 colon): 22.4 µM
- TGI (TK-10 renal): > 100 µM
- TGI (U251 CNS): > 100 µM
- TGI (UACC-257 melanoma): 52.4 µM
- TGI (UACC-62 melanoma): 60.1 µM
- TGI (UO-31 renal): > 94.8 µM

SMILES: O=C(O)c1c([N+](=O)[O-])cc(C(F)(F)F)cc1[N+](=O)[O-]
- TGI (786-0 renal): > 100 µM
- TGI (A498 renal): > 100 µM
- TGI (A549 NSCLC): > 100 µM
- TGI (ACHN renal): > 100 µM
- TGI (CAKI-1 renal): > 100 µM
- TGI (CCRF-CEM leukemia): > 100 µM
- TGI (COLO 205 colon): > 100 µM
- TGI (DMS 273 small cell lung): > 100 µM
- TGI (EKVX NSCLC): > 100 µM
- TGI (HCT-116 colon): > 100 µM
- TGI (HCT-15 colon): > 100 µM
- TGI (HL-60(TB) leukemia): > 100 µM
- TGI (HOP-62 NSCLC): > 100 µM
- TGI (HOP-92 NSCLC): > 100 µM
- TGI (HT29 colon): > 100 µM
- TGI (IGROV1 ovarian): > 100 µM
- TGI (K-562 leukemia): > 100 µM
- TGI (KM12 colon): > 100 µM
- TGI (KM20L2 colon): > 100 µM
- TGI (LOX IMVI melanoma): > 100 µM
- TGI (LXFL 529 NSCLC): > 100 µM
- TGI (M14 melanoma): > 100 µM
- TGI (M19-MEL melanoma): > 100 µM
- TGI (MOLT-4 leukemia): > 100 µM
- TGI (NCI-H226 lung): > 100 µM
- TGI (NCI-H23 lung): > 100 µM
- TGI (NCI-H460 lung): > 100 µM
- TGI (NCI-H522 lung): > 100 µM
- TGI (OVCAR-3 ovarian): > 100 µM
- TGI (OVCAR-4 ovarian): > 100 µM
- TGI (OVCAR-5 ovarian): > 100 µM
- TGI (OVCAR-8 ovarian): > 100 µM
- TGI (RPMI-8226 leukemia): > 100 µM
- TGI (RXF 393 renal): > 100 µM
- TGI (RXF-631 renal): > 100 µM
- TGI (SF-268 CNS): > 100 µM
- TGI (SF-295 CNS): > 100 µM
- TGI (SF-539 CNS): > 100 µM
- TGI (SK-MEL-2 melanoma): > 100 µM
- TGI (SK-MEL-28 melanoma): > 100 µM
- TGI (SK-MEL-5 melanoma): > 100 µM
- TGI (SN12C renal): > 100 µM
- TGI (SNB-19 CNS): > 100 µM
- TGI (SNB-78 CNS): > 100 µM
- TGI (SR leukemia): > 100 µM
- TGI (SW-620 colon): > 100 µM
- TGI (TK-10 renal): > 100 µM
- TGI (U251 CNS): > 100 µM
- TGI (UACC-257 melanoma): > 100 µM
- TGI (UO-31 renal): > 100 µM
- TGI (XF 498 CNS): > 100 µM
